Assay results: patent US10077236B2, “Azacyclic constrained analogs of FTY720” (The Regents of the University of California, priority 2013, dated 2018)
Read-outs that look alike come from different tables or passages of the source. Blank lines part the entries; values can stand above or below the compound they belong to.

Legend:
Nalm-6 Ph- ALL cell line = assay: Cell viability assay, Nalm-6; type: cell-based, human; conditions: 72 h, vital dye exclusion and flow cytometry, read-out: Mean IC50 (+/- SEM) in cell viability assay, Nalm-6 Ph- ALL
From the text: (§1) Leukemia cell assays: Effects of chemical changes on ability to kill cells as observed in cell viability assays using the BCR-ABL positive human acute lymphoblastic leukemia (ALL) cell line, Sup-B15 are described. Assays using the Sup-B15 cell line were designed to determine efficacy of azacyclic constrained small molecule analogs of FTY720 in killing leukemia cells. Analogs were generated using the synthesis methods mentioned above. Sup-B15 cells were maintained at 2-3 million/mL in RPMI 1640 (by Mediatech™) supplemented with 10% fetal calf serum (by Sigma-Aldrich™), 10 mM Hepes (by Mediatech™), 55 μM β-mercaptoethanol (by Sigma-Aldrich™), 2 mM L-glutamine (by Mediatech™), and antibiotics. BV173, Nalm-6, and Blin-1 were maintained at 1-2 million/mL and CCRF-CEM at less than 500,000/mL in the same medium. BMp190 cells were created by transducing murine bone marrow cells with pMIC-p190 which expresses the p190 isoform of BCR-Abl and human CD4 from an IRES; these cells were kept at 1-2 million/mL in RPMI supplemented as above.
(§2) Flow cytometry: Much of the biological activity presented is shown through flow cytometry data. […] Here, IC50 flow cytometry assays were used. In them, viability was determined at 72 hours by vital dye exclusion [propium iodide or DAPI (4′,6-diamindino-2-phenylindole)]. To measure nutrient receptor expression following exposure to FTY720 and azacyclic constrained analogs of FTY720, surface 4F2hc expression was measured after 3 hours of drug treatment by staining 150,000 cells with phycoerythrin-conjugated mouse anti-human CD98 (by BD Biosciences™). Analysis was restricted to viable cells.
(§3) All samples for the disclosed sets of data were analyzed on a BD LSR II flow cytometer and data analyzed with FlowJo™ software (by Treestar™). IC50's were calculated and statistical tests were performed using GraphPad Prism™.

sphingosine kinase 2 = target: T1, sphingosine kinase 2 (Mus musculus, UniProt Q9JIA7); assay: Phosphorylation by sphingosine kinase 2 in cells; type: cell-based
T1 construct: endogenous in cells
T1 sequence (Q9JIA7 1-617): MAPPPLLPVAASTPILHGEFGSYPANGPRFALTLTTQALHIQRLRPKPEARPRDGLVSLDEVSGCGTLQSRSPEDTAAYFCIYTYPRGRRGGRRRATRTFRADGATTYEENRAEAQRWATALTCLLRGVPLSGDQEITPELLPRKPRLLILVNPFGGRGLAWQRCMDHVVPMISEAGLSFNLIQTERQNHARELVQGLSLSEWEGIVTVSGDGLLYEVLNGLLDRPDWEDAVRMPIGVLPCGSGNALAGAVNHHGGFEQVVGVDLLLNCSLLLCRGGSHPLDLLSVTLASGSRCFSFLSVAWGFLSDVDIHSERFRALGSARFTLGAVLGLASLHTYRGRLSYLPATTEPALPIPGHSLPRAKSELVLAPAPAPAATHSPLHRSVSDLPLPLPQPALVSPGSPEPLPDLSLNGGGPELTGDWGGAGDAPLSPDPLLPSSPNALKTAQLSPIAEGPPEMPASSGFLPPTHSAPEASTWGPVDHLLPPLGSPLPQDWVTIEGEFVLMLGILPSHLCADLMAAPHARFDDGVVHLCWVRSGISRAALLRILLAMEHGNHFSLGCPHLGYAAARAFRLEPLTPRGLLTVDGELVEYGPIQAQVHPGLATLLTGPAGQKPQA
Protocol: The importance of phosphorylation in the activity of compound 6 was then examined. In this study MEF knockout lines that show the same differential sensitivity to compound 6 relative to its enantiomers as leukemia cells were used (FIG. 10h). […] A phosphate and a non-phosphorylatable analog of compound 6 were then tested.

[1] = test system: DU145 prostate cancer cell line; assay: Cell viability assay, DU145; type: cell-based, human; conditions: 72 h, vital dye exclusion and flow cytometry, read-out: Mean IC50 (+/- SEM) in cell viability assay, DU145 prostate
Protocol: as §2, with “In them, viability was determined at 72 hours by vital dye exclusion [propium iodide or DAPI (4′,6-diamindino-2-phenylindole)].” left out, “cells. All samples for the disclosed sets of data were analyzed on a BD LSR II flow cytometer and data analyzed with FlowJo™ software (by Treestar™). IC50's were calculated and statistical tests were performed using GraphPad Prism™.” for “cells.”

[2] = test system: BMp190 cells (murine bone marrow transduced with BCR-Abl p190); assay: Cell viability assay, BCR-Abl p190-expressing murine bone marrow (BM-p190); type: cell-based; conditions: 72 h, vital dye exclusion and flow cytometry, read-out: Mean IC50 (+/- SEM) in cell viability assay, BM-p190
From the text: as §1, §2, §3

BV173 Ph+ ALL cell line = assay: Cell viability assay, BV173; type: cell-based, human; conditions: 72 h, vital dye exclusion and flow cytometry, read-out: Mean IC50 (+/- SEM) in cell viability assay, BV173 Ph+ ALL
From the text: as §1, §2, §3

[3] = test system: PC3 prostate cancer cell line; assay: Cell viability assay, PC3; type: cell-based, human; conditions: 72 h, vital dye exclusion and flow cytometry, read-out: Mean IC50 (+/- SEM) in cell viability assay, PC3 prostate
Protocol: as §2, with “In them, viability was determined at 72 hours by vital dye exclusion [propium iodide or DAPI (4′,6-diamindino-2-phenylindole)].” left out, “cells. All samples for the disclosed sets of data were analyzed on a BD LSR II flow cytometer and data analyzed with FlowJo™ software (by Treestar™). IC50's were calculated and statistical tests were performed using GraphPad Prism™.” for “cells.”

[4] = test system: Sup-B15 BCR-ABL positive human acute lymphoblastic leukemia (ALL) cell line; assay: Cell viability assay, Sup-B15 leukemia cells (flow cytometry, vital dye exclusion); type: cell-based; conditions: for IC50: 72 h, vital dye exclusion and flow cytometry, read-out: Mean IC50 (+/- SEM) in cell viability assay, SupB15 Ph+ ALL; for ability to kill leukemia cells, potency compared in words: Sup-B15 cell viability assays
From the text: as §1, §2, §3

[5] = test system: CCRF-CEM Ph- ALL cell line; assay: Cell viability assay, CCRF-CEM; type: cell-based, human; conditions: 72 h, vital dye exclusion and flow cytometry, read-out: Mean IC50 (+/- SEM) in cell viability assay, CCRF-CEM Ph- ALL
From the text: as §1, §2, §3

Blin-1 Ph- ALL cell line = assay: Cell viability assay, Blin-1; type: cell-based, human; conditions: 72 h, vital dye exclusion and flow cytometry, read-out: Mean IC50 (+/- SEM) in cell viability assay, Blin-1 Ph- ALL
From the text: as §1, §2, §3

circulating lymphocytes = assay: Lymphocyte sequestration (circulating lymphocytes); type: in vivo, mouse; conditions: number of circulating lymphocytes 12 h after dosage
From the text: (§4) As previously discussed, FTY720 itself cannot be used in cancer patients because phosphorylation of FTY720 by SphKs makes FTY720-P, which acts at S1P receptors to cause bradycardia and immunosuppression (on-target effect for primary use).

[6] = Mouse heart rate by telemetry; type: in vivo; conditions: telemetry for 24 h after administration of anti-cancer dose
From the text: as §4

IC50 [1]: 10.8 ± 0.4 µM
IC50 [3]: 14.3 ± 1.2 µM
IC50 [4]: 7.7 ± 0.8 µM
IC50 [5]: 11 ± 1.3 µM
SMILES: CCCCCCCCc1ccc(CO[C@H]2CN[C@H](CO)C2)cc1.Cl [Compound 5]
IC50 (Nalm-6 Ph- ALL cell line): 15 ± 2.1 µM
phosphorylation by sphingosine kinase 2 in cells (sphingosine kinase 2): phosphorylated by sphingosine kinase 2 in cells
IC50 [2]: 5.7 ± 1.1 µM
IC50 (BV173 Ph+ ALL cell line): 10.4 ± 0.7 µM
IC50 (Blin-1 Ph- ALL cell line): 7.5 ± 0.1 µM

SMILES: CCCCCCCCc1ccc(CO[C@H]2CN[C@H](C)C2)cc1.Cl [Compound 13]
ability to kill leukemia cells, potency compared in words [4]: no detectable effect on the potency

SMILES: CCCCCCCCc1ccc(CO[C@@H]2CN[C@@H](C)C2)cc1.Cl [Compound 14]
ability to kill leukemia cells, potency compared in words [4]: decreased the activity

SMILES: CCCCCCCCc1ccc(CO[C@@H]2CN[C@@H](COC)C2)cc1.Cl [Compound 15, (2R,4S)-2-(methoxymethyl)-4-((4-octylbenzyl)oxy)-pyrrolidine hydrochloride salt]
ability to kill leukemia cells, potency compared in words ([4]; hydrochloride salt): reduced the potency

SMILES: CCCCCCCCc1ccc(COC2CCNC2)cc1.Cl (centres unmarked) [Compound 16]
ability to kill leukemia cells, potency compared in words [4]: only a marginal effect on activity

lymphocyte sequestration / immunosuppression (circulating lymphocytes): causes lymphocyte sequestration
IC50 ([1]; Homo sapiens, DU-145): 6.5 ± 0.9 µM
IC50 ([3]; Homo sapiens): 9.8 ± 0.9 µM
IC50 ([4]; Homo sapiens, SUP-B15): 6.8 ± 0.7 µM
IC50 ([5]; Homo sapiens, CCRF-CEM): 6.8 ± 0.3 µM
SMILES: CCCCCCCCc1ccc(CCC(N)(CO)CO)cc1.Cl [FTY720, 2-Amino-2-[2-(4-octylphenyl)ethyl]propane 1,3-diol hydrochloride]
IC50 (Nalm-6 Ph- ALL cell line; Homo sapiens, NALM-6): 9.6 ± 1.9 µM
IC50 ([2]; Mus musculus): 3.3 ± 0.2 µM
IC50 (BV173 Ph+ ALL cell line; Homo sapiens, BV-173): 6.3 ± 0.4 µM
effect on heart rate [6]: dramatic drop in heart rate
IC50 (Blin-1 Ph- ALL cell line; Homo sapiens): 5.5 ± 0.1 µM
